Strand notation (5' to 3'): a small letter for the sugar, then the base; units joined by * are phosphorothioate-linked, units joined directly phosphodiester-linked; [ ] holds rarer units or linkages, { } end groups; capitals alone tell only the bases. e = 2'-O-(2-methoxyethyl) (MOE); k = constrained ethyl (cEt); [5mC] = 5-methylcytosine; d = 2'-deoxy (DNA); m = 2'-O-methyl
System: Yap1 mRNA
Assay: Antisense inhibition of human Yap1 in SNU-449 cells by modified oligonucleotides, single dose (Example 5, RTS36584)
Assay type: cell-based
Details: Table 39; SNU-449 cells, 10,000 cells per well, free uptake, 2,000 nM oligonucleotide, approx. 48 hours; RTS36584; normalized to RIBOGREEN; Yap1 mRNA relative to untreated control
How it was run: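 SNU-449 cells (10,000/well) took up 2,000 nM oligonucleotide by free uptake for about 48 h. Yap1 mRNA was measured by qRT-PCR with primer probe set RTS36584 and normalised to RIBOGREEN total RNA. Values are % of untreated control; asterisked oligos target the amplicon region.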

Substance	YAP1 (% UTC)
1198422 (k[5mC]*dT*dT*dA*dT*dA*dT*dG*dG*dT*dT*kT*eT*kG*eT*kG; antisense) [Compound 1198422]	18 % UTC
1198385 (kA*dT*dA*dT*dT*dA*dG*dA*dG*dT*dA*kT*eG*kT*eG*kG; antisense) [Compound 1198385]	30 % UTC
1198402 (kG*dG*dA*dA*dG*dA*dT*d[5mC]*dT*dG*dA*kA*eA*k[5mC]*eT*k[5mC]; antisense) [Compound 1198402]	32 % UTC

Same assay, conditions: Table 40 (separate experiment); SNU-449 cells, 10,000 cells per well, free uptake, 2,000 nM oligonucleotide, approx. 48 hours; RTS36584; normalized to RIBOGREEN; Yap1 mRNA relative to untreated control

Substance	YAP1 (% UTC)
1198749 (kT*eT*kA*dA*dG*d[5mC]*dA*d[5mC]*dT*dT*dT*dT*eA*e[5mC]*kA*kT; antisense) [Compound 1198749]	73 % UTC

Same assay, conditions: Table 41; SNU-449 cells, 10,000 cells per well, free uptake, 2,000 nM modified oligonucleotide, approximately 48 hours; RTS36584; normalized to RIBOGREEN; Yap1 mRNA relative to untreated control cells

Substance	YAP1 (% UTC)
1198644 (kT*kA*dT*dA*dT*dT*dA*dG*dA*dG*dT*dA*kT*eG*kT*eG; antisense) [Compound 1198644]	73 % UTC
1198776 (kG*eA*k[5mC]*dA*dA*d[5mC]*dT*d[5mC]*dT*dT*dA*dT*eA*eT*kG*kG) [Compound 1198776]	57 % UTC
1198631 (kA*kA*dA*dT*dT*dG*dT*d[5mC]*dT*d[5mC]*dA*dT*kG*e[5mC]*k[5mC]*eT; antisense) [Compound 1198631]	53 % UTC

Same assay, conditions: Table 42 (separate experiment); SNU-449 cells, 10,000 cells per well, free uptake, 2,000 nM modified oligonucleotide, approximately 48 hours; RTS36584; normalized to RIBOGREEN; Yap1 mRNA relative to untreated control cells

Substance	YAP1 (% UTC)
1198702 (kT*kT*dT*dA*dA*dA*dG*dT*dG*dT*dA*dT*kG*eT*k[5mC]*eA; antisense) [Compound 1198702]	74 % UTC
1095482 (antisense k[5mC]*kT*dG*dA*dG*dG*dT*dA*dT*dA*dA*d[5mC]*kT*eG*kG*eG) [Compound 1095482]	72 % UTC
1198233 (k[5mC]*kT*dT*dT*dG*dG*dA*dA*dG*dA*dT*e[5mC]*eT*eG*kA*kA) [Compound 1198233]	49 % UTC
1198223 (k[5mC]*kT*dT*dT*dT*dA*d[5mC]*dA*dT*dT*dA*eG*eG*eA*kA*k[5mC]) [Compound 1198223]	94 % UTC
1198230 (kG*kG*dA*dA*dG*dA*dT*d[5mC]*dT*dG*dA*eA*eA*e[5mC]*kT*k[5mC]) [Compound 1198230]	81 % UTC
1198708 (kT*kA*dA*dG*dT*dA*dA*dG*dG*dT*dT*dT*k[5mC]*e[5mC]*k[5mC]*eA; antisense) [Compound 1198708]	34 % UTC

Same assay, conditions: Table 43 experiment; SNU-449 cells, 10,000 cells per well, free uptake, 2,000 nM, approximately 48 hours; RTS36584; Yap1 mRNA normalized to RIBOGREEN, relative to untreated control cells

Substance	YAP1 (% UTC)
1198282 (kA*kG*dA*d[5mC]*dT*dA*dA*dG*dT*dA*dA*eG*eG*eT*kT*kT; antisense) [Compound 1198282]	58 % UTC
1198247 (kA*kT*dT*d[5mC]*dA*dG*dA*dT*dT*dT*dA*eG*eG*eA*kT*kG; antisense) [Compound 1198247]	99 % UTC
1198260 (kT*kA*dA*dT*dA*dT*dT*dG*d[5mC]*dA*dA*eT*e[5mC]*eT*kG*kT; antisense) [Compound 1198260]	106 % UTC
1198261 (kG*kT*dA*dA*dT*dA*dT*dT*dG*d[5mC]*dA*eA*eT*e[5mC]*kT*kG; antisense) [Compound 1198261]	54 % UTC
1198473 (antisense kT*k[5mC]*dT*dA*dT*dA*dT*dT*dA*dG*dA*eG*kT*eA*kT*eG) [Compound 1198473]	66 % UTC

Same assay, conditions: Table 44 experiment; SNU-449 cells, 10,000 cells per well, free uptake, 2,000 nM, approximately 48 hours; RTS36584; Yap1 mRNA normalized to RIBOGREEN, relative to untreated control cells

Substance	YAP1 (% UTC)
1198535 (kA*kA*dG*dT*dA*dA*dG*dG*dT*dT*dT*e[5mC]*k[5mC]*e[5mC]*kA*eG; antisense) [Compound 1198535]	35 % UTC
1198525 (kA*kG*dT*dG*dT*dA*dT*dG*dT*d[5mC]*dA*eG*kA*eA*kG*eA; antisense) [Compound 1198525]	2 % UTC
1198536 (kT*kA*dA*dG*dT*dA*dA*dG*dG*dT*dT*eT*k[5mC]*e[5mC]*k[5mC]*eA; antisense) [Compound 1198536]	20 % UTC

Same assay, conditions: Table 45; Yap1 mRNA as percent of untreated control, SNU-449 cells, single dose

Substance	YAP1 (% UTC)
1198941 (kT*kT*dA*dT*dA*dT*dG*dG*dT*dT*dT*kT*dG*kT*dG*kT; antisense) [Compound 1198941]	35 % UTC
1198963 (kT*kT*dA*dA*dA*dG*dT*dG*dT*dA*dT*kG*dT*k[5mC]*dA*kG; antisense) [Compound 1198963]	27 % UTC
1198967 (kT*kA*dA*dG*dG*dT*dT*dT*d[5mC]*d[5mC]*d[5mC]*kA*dG*kA*dT*kT; antisense) [Compound 1198967]	65 % UTC
1198956 (kT*kA*dT*dG*dT*dA*dA*dT*dA*dT*dT*kG*d[5mC]*kA*dA*kT; antisense) [Compound 1198956]	76 % UTC
1198960 (kA*kA*dG*dT*dG*dT*dA*dT*dG*dT*d[5mC]*kA*dG*kA*dA*kG; antisense) [Compound 1198960]	6 % UTC

Same assay, conditions: Table 46; Yap1 mRNA as percent of untreated control, SNU-449 cells, single dose

Substance	YAP1 (% UT)
1198825 (kG*kA*dG*dG*dT*dA*dT*dA*dA*d[5mC]*dT*kG*eG*kG*e[5mC]*kA; antisense) [Compound 1198825]	64 % UT
1198863 (kA*kT*dT*dG*d[5mC]*dA*dA*dT*d[5mC]*dT*dG*kT*e[5mC]*kT*eG*kA; antisense) [Compound 1198863]	65 % UT
1198817 (antisense kA*kT*dT*dA*dG*dA*dG*dT*dA*dT*dG*kT*eG*kG*e[5mC]*kA) [Compound 1198817]	AksTksTdsAdsGdsAdsGdsTdsAdsTds43 % UT
1095426 (antisense k[5mC]*kT*dG*dA*dG*dG*dT*dA*dT*dA*dA*k[5mC]*eT*kG*eG*kG) [Compound 1095426]	54 % UT

Same assay, conditions: Table 48; Yap1 mRNA level relative to untreated control; modified oligonucleotides targeting SEQ ID NO.: 1 and 2

Substance	YAP1 (% UT)
1198316 (kG*kG*kA*dA*dG*dA*dT*d[5mC]*dT*dG*dA*dA*kA*e[5mC]*kT*e[5mC]; antisense) [Compound 1198316]	49 % UT
1198296 (kT*kT*kA*dG*dA*dG*dT*dA*dT*dG*dT*dG*kG*e[5mC]*kA*eA; antisense) [Compound 1198296]	29 % UT
1197216 (antisense kA*kA*kA*dG*dT*dG*dT*dA*dT*dG*dT*d[5mC]*dA*kG*kA*kA) [Compound 1197216]	12 % UT

Same assay, conditions: Table 49; Yap1 mRNA level relative to untreated control; modified oligonucleotides targeting SEQ ID NO.: 1 and 2

Substance	YAP1 (% UT)
1198573 (antisense kT*kT*kA*dA*dG*d[5mC]*dA*d[5mC]*dT*dT*dT*dT*kA*k[5mC]*kA*eT) [Compound 1198573]	76 % UT
1198364 (kT*kA*kA*dG*dT*dA*dA*dG*dG*dT*dT*dT*k[5mC]*e[5mC]*k[5mC]*eA; antisense) [Compound 1198364]	29 % UT
1198579 (antisense kT*kG*k[5mC]*dT*dT*dT*dG*dG*dA*dA*dG*dA*kT*k[5mC]*kT*eG) [Compound 1198579]	34 % UT
1198352 (kT*kG*kT*dA*dT*dG*dT*d[5mC]*dA*dG*dA*dA*kG*eA*kG*eT; antisense) [Compound 1198352]	7 % UT

Same assay, conditions: Table 50; Yap1 mRNA remaining as percent of untreated control (UT), SNU-449 cells, single dose

Substance	YAP1 (% UT)
1198561 (antisense kG*kG*kT*dA*dT*dA*dA*d[5mC]*dT*dG*dG*dG*k[5mC]*kA*kA*eA) [Compound 1198561]	29 % UT
1198617 (antisense k[5mC]*kT*kT*dT*dA*dA*dA*dG*dT*dG*dT*dA*kT*kG*kT*e[5mC]) [Compound 1198617]	34 % UT

Same assay, conditions: Table 51; Yap1 mRNA remaining as percent of untreated control (UT), SNU-449 cells, single dose

Substance	YAP1 (% UT)
1197256 (antisense kA*kT*kT*dT*mA*dG*dG*dA*dT*dG*d[5mC]*dA*dT*kG*kG*kT) [Compound 1197256]	31 % UT
1197260 (kT*kT*kA*dT*mA*dT*dG*dG*dT*dT*dT*dT*dG*kT*kG*kT) [Compound 1197260]	65 % UT

Same assay, conditions: Table 52; Yap1 mRNA, modified oligonucleotides targeting SEQ ID NO: 1 and 2

Substance	YAP1 (% UT)
1200851 (kG*kT*kA*dA*dT*mA*dT*dT*dG*d[5mC]*dA*dA*dT*k[5mC]*kT*kG; antisense) [Compound 1200851]	25 % UT
1200819 (kT*kT*kA*dA*dG*mC*dA*d[5mC]*dT*dT*dT*dT*dA*k[5mC]*kA*kT; antisense) [Compound 1200819]	101 % UT

Same assay, conditions: Yap1 mRNA, percent of untreated control; modified oligonucleotides targeting SEQ ID NO: 1 and 2; Table 47

Substance	YAP1 (% UT)
1197186 (antisense kT*kT*kA*dA*dG*d[5mC]*dA*d[5mC]*dT*dT*dT*dT*dA*k[5mC]*kA*kT) [Compound 1197186]	65 % UT
1197197 (antisense kT*k[5mC]*kA*dG*dA*dT*dT*dT*dA*dG*dG*dA*dT*kG*k[5mC]*kA) [Compound 1197197]	20 % UT

— patent publication US11214803B2, “Modulators of YAP1 expression” (Ionis Pharmaceuticals, Inc., priority 2019, dated 2022)
